Source: patent publication US11046657B2, “Pyrimidinone derivatives and uses thereof to neutralize the biological activity of chemokines” (Centre National de la Recherche Scientifique (CNRS), priority 2016, dated 2021)
In brackets after ≈: the same amount, converted by molar mass. Entries after “also recorded” stand apart in the source; their conditions may differ. Like-named read-outs stand apart in the source and are kept apart here.

Legend:
[1] = Solubility in assay media; assay type: physicochemical
Description: (§1) Their solubility in assay media was evaluated. (2-Hydroxypropyl)-o-cyclodextrin (Cdx) was used as excipient because of its low toxicity and its capacity to increase bioavailability. […] The compound stability was evaluated in PBS only and in PBS/Cdx.

CXCR4-CXCL12 binding = molecular target: T1, CXCR4-CXCL12 binding (Homo sapiens, UniProt P48061); experiment: Inhibition of CXCL12-TR binding to CXCR4-GFP (FRET); details: 10 μM
T1 construct: expressed in transfected cells
Description: Study of the changes of CXCR4-CXCL12 binding was achieved by the energy transfer technique^10,11.
Binding of Texas red-labelled CXCL12 with CXCR4-GFP fused receptor^11 induces fluorescence resonance energy transfer (FRET), which can be monitored by the reduction of GFP fluorescence emission. The characterization of CXCL12 neutraligands was evaluated in two conditions, differing by the sequence of addition of molecules. Reduction of GFP fluorescence emission was more important when neutraligands were preincubated (30 min) […] prior to the addition to cells.
The CXCR4 antagonist, T134 (20 μM) was used as a control in both incubation protocols. Data obtained were consistent with a binding to the chemokine and not to its receptor. Consequently, all selected compounds are indeed CXCL12 chemokine neutraligands and behave as chalcone-4. The neutralizing properties of the compounds are thus confirmed.

[2] = test system: Balb/c mice topically administered MC903; experiment: Murine model of atopic dermatitis induced by MC903; assay type: in vivo, mouse; details: 350 μmol/kg topical in acetone/olive oil, 2 h before each MC903 application, D1-D13
Description: FIG. 2A. In vivo effect of a topical treatment with chalcone 4 and compound (1). Mouse ears were treated with MC903 (calcipotriol, 2 nmol/ear or 4 nmol/ear) or its solvent (ethanol EtOH) together with 350 μmol/kg chalcone 4 (upper row of images) or compound (1) (lower row of images) or solvent (acetone/olive oil 50/50, AOO). Chalcone 4 and compound (1) were dissolved in AOO and administered topically 2 h before each MC903 application. MC903 was dissolved in EtOH and topically applied.
FIG. 2B. Increase in ear thickness over time (D1-D13) was determined with a caliper on animals treated with MC903 or solvent (EtOH), and compound (1) or solvent (AOO) as described for FIG. 2A. Data points are means and bars are S.E.M. values of n=6 determinations.
FIG. 2C. Increase in ear thickness over time (D1-D13) was determined with a caliper on animals treated with MC903 or solvent (EtOH) and […] or solvent (AOO). Data points are means and bars are S.E.M. values of n=6 determinations.
The in vivo activity of compound (1) was tested in a murine model of atopic dermatitis as previously described (Zhang et al, Proc Nat Acad Si USA 2009, 106, 1536-41). Briefly, Balb/c mice were topically administered with a vitamin D analogue, MC903 (2 or 4 nmol/ear) every other day for 13 days. […]

[3] = test system: Balb/c mice administered LPS; experiment: LPS-induced mouse model of neutrophilic airway inflammation (COPD); assay type: in vivo; details: 350 μmol/kg i.p. in 1% CMC, 2 h before LPS; lavage 24 h after LPS
Description: In vivo effect of a systemic treatment with chalcone-4 or compound (1) in a LPS-induced mouse model of neutrophilic airway inflammation. Balb/c mice were administered intranasally with LPS (1 μg, white block) or saline (control). Chalcone-4 (gray block) or compound (1) (black block) (350 μmol/kg each) suspended in 1% CMC or solvent (CMC alone) were administered intraperitoneally 2 h before LPS. Neutrophil recruitment is shown, inhibited by chalcone 4 and compound (1). Data points are means and bars are S.E.M. values of n=6 determinations.
The in vivo activity of compound (1) was tested in the murine model of neutrophilic airway inflammation induced by lipopolysaccharide (LPS) as previously described (Flacher et al, ACS Chem Biol. 2015, 10:2697-705)^14.
Briefly, Balb/c mice were administered intranasally with LPS (lipopolysaccharide from E. coli, O55B5, 1 μg, Sigma Aldrich) or saline. Treatments with (1) or Chalcone-4 (350 μmol/kg) in 1% CMC (carboxymethylcellulose) were administered by the intraperitoneal route 2 h before LPS instillation. Bronchoalveolar lavage was performed 24 h after LPS, and neutrophil, lymphocyte, eosinophil and macrophage numbers quantified.

Stability after 24 h = assay type: physicochemical; details: monitored after 24 h
Description: as §1

[4] = test system: Balb/c mice sensitized to ovalbumin; experiment: 8-day murine model of allergic eosinophilic airway inflammation; assay type: in vivo, mouse; details: for IC50 on eosinophil recruitment: intranasal, 2 h before each challenge, in PBS/Cdx, bronchoalveolar lavage 24 h after last challenge
Description: In vivo dose-response effect of a topical treatment with chalcone-4 and compound (1) of formula (I) in an 8-day mouse model of allergic eosinophilic airway inflammation. Balb/c mice were sensitized to ovalbumin (OVA, 50 μg) in the presence of 2 mg alum (IP. injection on days 0, 1 and 2) and challenged with OVA (10 μg) or saline (IN.) on days 6, 7 and 8. Increasing doses of chalcone-4 (gray line) or compound (1) (black line) solubilized in 10% hydroxypropyl-B-cyclodextrine (Cdx) were administered by the intranasal route 2 h before each challenge. Bronchoalveolar lavage was performed 24 h after the last challenge, and inflammatory cells including eosinophils counted. The percentage of inhibition of eosinophil recruitment is shown. Data points are means and bars are S.E.M. values of n=6 determinations.
The in vivo activity of compound (1) was tested in the 8-day murine model of allergic eosinophilic airway inflammation previously described^13.
Briefly, Balb/c mice were sensitized to ovalbumin (OVA) and challenged 3 times with OVA or saline at 24 h interval. Treatments with each compound (300 nmol/kg in 10% PBS/Cdx) were administered by the intranasal route 2 h before each challenge. Bronchoalveolar lavage was performed 24 h after the last challenge, and eosinophil, macrophage, neutrophil and lymphocyte numbers quantified.
Using the same protocol, the dose-response of compound (1) and chalcone-4 was evaluated on eosinophil recruitment after intranasal administration (FIG. 1).

[5] = PBS with (2-hydroxypropyl)-cyclodextrin (Cdx) 10% w/w, aqueous with cosolvent or surfactant or cyclodextrin, PBS/Cdx (10% w/w), read-out: Solubility PBS/Cdx
[6] = PBS, aqueous buffer, read-out: Solubility PBS

T1 sequence (P48061 22-89 limits assumed): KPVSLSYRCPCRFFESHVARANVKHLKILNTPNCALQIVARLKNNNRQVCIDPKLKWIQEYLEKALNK

Row | Compound | solubility [1, 5] | solubility [1, 6] | inhibition at 10 µM (CXCR4-CXCL12 binding; Table 3) | Atopic response to MC903 (ear thickness) [2] | Inhibition of neutrophil recruitment [3] | Stability PBS/Cdx (Stability after 24 h) | Stability PBS (Stability after 24 h) | IC50 on eosinophil recruitment [4] | Solubility compared with chalcone-4 ([1]; in words) | inhibition at 10 µM (CXCR4-CXCL12 binding; Table 2) | inhibition at 10 µM (CXCR4-CXCL12 binding; Table 4) | Recruitment of eosinophils ([4]; 300 nmol/kg, intranasal route, n=6)
1 | COc1cc(/C=C/C(=O)c2ccc(Cl)cc2)ccc1O [Chalcone-4, (E)-1-(4-Chlorophenyl)-3-(4-hydroxy-3-methoxyphenyl)prop-2-en-1-one, reference compound] | > 300 µM | 9 µM (≈ 2.6 µg/mL) | 96 ± 2% | totally abolished the atopic response to MC903 | 30% | 100% | 100% | higher than 500 nmol/kg |  |  |  | 
2 | COc1cc(-c2cc(-c3ccc(Cl)cc3)nc(=O)[nH]2)ccc1O [compound (1), 4-(4-Chlorophenyl)-6-(4-hydroxy-3-methoxyphenyl)pyrimidin-2(1H)-one] | > 5000 µM | 36.4 µM (≈ 12 µg/mL) | 76 ± 5% | inhibits atopic dermatitis induced by MC903; also recorded: totally abolished the atopic response to MC903 | 43% | 100% | 100% | 300 nmol/kg | better than the solubility of “chalcone-4”; also recorded: more soluble | 92 ± 5% | 76 ± 5% | inhibits the recruitment of eosinophils
